Assay results taken from patent publication US12364690B2, “Therapeutic agent for bile duct cancer” (NATIONAL CANCER CENTER, priority 2015, dated 2025).
Like-named read-outs stand apart in the source and are kept apart here.

Assays:
[1] = tested on: NIH3T3 cell line transfected with the FGFR2 fusion gene; assay: Immunoblot (Western blot) analysis of downstream signal of FGFR2 fusion gene; assay type: cell-based, mouse; conditions: final concentration of FGFR inhibitor 0.2 μM or 0.5 μM, FIG. 3
Description: First, the wild-type FGFR2 fusion gene or KD mutant FGFR2 fusion gene was transfected into the mouse fibroblast cell line NIH3T3 using the retrovirus, and the obtained cell line was cultured in a liquid culture medium. The cultured cell line was subjected to serum starvation, and then treated with a culture medium containing an FGFR inhibitor before extracting the total proteins. Herein, the protein encoded by FGFR2-BICC1 type2, the protein encoded by FGFR2-TXLNA and the protein encoded by FGFR2-KCTD1 are shown in SEQ ID NOs: 6, 2 and 4, respectively.
Next, the NIH3T3 cell line transfected with the FGFR2 fusion gene was subjected to Western blot analysis after adding the FGFR inhibitor to the cell line (the final concentration of the FGFR inhibitor: 0.2 μM or 0.5 μM) and extracting the total proteins similarly.

[2] = Relative body weight in transplant model mice (safety of dosage); assay type: in vivo, mouse; conditions: 6.25, 12.5, 25 and 50 mg/kg orally once a day; dosage judged as safe
Description: Based on the tumor volume on the first day of administration, the mice were grouped so that mean values of the tumor volume of the groups were nearly equal to each other. […]. The Compound A solution was continuously administered orally to the mice in the Compound A administration group once a day at a dosage of 20 mL/kg. On the other hand, only the solvent (water for injection) was similarly administered to the mice in the control group. The Administration was carried out to FGFR2-BICC1 type2 or FGFR2-KCTD1 transplant model mice for 7 days and to FGFR2-TXLNA transplant model mice for 11 days.
On the first day and the last day of the administration, body weight was measured for each mice in the control group and the Compound A administration group. The ratio of the body weight on the last day to the body weight on the first day (relative body weight: RBW) was calculated. When the RBW of the Compound A administration group/the RBW of the control group was 0.9 or more, the dosage was judged as safe. The corresponding dosage was 6.25, 12.5, 25 and 50 mg/kg.

[3] = target: NIH3T3 cells transfected with FGFR2-KCTD1 (Homo sapiens, UniProt P21802); conditions: final concentration 0.2 μM; soft agar; FIG. 5 and FIG. 6
NIH3T3 cells transfected with FGFR2-KCTD1, sequence (P21802 with tags, fused parts or gaps isoform P21802-22): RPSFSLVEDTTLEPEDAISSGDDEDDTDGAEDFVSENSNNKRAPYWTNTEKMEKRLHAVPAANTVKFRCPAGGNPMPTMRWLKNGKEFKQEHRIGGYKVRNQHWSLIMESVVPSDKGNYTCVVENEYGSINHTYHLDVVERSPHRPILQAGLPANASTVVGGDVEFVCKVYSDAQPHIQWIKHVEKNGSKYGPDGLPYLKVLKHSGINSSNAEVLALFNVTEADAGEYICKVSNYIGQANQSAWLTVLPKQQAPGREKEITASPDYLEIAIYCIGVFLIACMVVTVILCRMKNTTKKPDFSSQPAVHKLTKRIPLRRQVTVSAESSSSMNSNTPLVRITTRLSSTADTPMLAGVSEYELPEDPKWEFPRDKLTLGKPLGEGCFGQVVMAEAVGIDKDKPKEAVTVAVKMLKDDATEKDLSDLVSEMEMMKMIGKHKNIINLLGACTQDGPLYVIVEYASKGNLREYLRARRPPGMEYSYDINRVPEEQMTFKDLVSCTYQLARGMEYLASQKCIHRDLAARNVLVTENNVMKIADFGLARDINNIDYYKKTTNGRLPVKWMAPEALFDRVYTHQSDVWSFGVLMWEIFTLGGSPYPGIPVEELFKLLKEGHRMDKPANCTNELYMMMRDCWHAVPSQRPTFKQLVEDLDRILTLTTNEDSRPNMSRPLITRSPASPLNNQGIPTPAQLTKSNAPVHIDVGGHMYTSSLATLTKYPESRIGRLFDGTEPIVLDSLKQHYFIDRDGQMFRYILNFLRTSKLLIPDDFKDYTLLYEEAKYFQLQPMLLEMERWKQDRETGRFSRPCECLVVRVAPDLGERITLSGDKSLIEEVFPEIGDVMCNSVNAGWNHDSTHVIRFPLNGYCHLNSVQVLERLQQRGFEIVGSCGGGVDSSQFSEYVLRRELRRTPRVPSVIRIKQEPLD
Description: (§1) Using the following apparatus, the activity of FGFR inhibitors on the transformation capacity of FGFR2 fusion polypeptide was evaluated.

[4] = target: NIH3T3 cell transfected with FGFR2-BICC1 type2 (Homo sapiens, UniProt P21802, DEL126-151/R152G)
NIH3T3 cell transfected with FGFR2-BICC1 type2, sequence (P21802 with tags, fused parts or gaps isoform P21802-22 DEL37-62/R63G): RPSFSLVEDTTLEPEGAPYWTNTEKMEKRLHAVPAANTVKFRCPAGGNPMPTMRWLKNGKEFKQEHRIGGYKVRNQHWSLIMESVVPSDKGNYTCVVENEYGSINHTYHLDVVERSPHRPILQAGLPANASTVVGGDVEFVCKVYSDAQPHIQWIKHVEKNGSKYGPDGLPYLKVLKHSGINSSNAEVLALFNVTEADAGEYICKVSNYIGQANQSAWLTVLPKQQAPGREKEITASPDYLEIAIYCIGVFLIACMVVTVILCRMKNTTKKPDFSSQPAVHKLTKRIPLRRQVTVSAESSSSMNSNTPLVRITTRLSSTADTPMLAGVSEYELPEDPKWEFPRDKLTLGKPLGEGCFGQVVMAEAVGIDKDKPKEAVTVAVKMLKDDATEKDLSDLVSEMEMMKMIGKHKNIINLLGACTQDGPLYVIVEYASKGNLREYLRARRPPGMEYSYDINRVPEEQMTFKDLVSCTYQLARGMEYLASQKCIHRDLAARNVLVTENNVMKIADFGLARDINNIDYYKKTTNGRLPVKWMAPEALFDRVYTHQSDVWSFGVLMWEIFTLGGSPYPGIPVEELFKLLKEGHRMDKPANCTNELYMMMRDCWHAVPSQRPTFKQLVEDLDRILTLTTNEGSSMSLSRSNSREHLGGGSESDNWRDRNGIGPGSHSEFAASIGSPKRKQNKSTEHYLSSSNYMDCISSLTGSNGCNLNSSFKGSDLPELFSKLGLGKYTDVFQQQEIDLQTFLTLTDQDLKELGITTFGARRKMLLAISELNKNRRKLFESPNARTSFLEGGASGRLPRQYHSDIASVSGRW
Description: as §1

[5] = target: NIH3T3 cells transfected with FGFR2-TXLNA (Homo sapiens, UniProt P21802, DEL126-151/R152G); conditions: final concentration 0.2 μM; soft agar; FIG. 5 and FIG. 6
NIH3T3 cells transfected with FGFR2-TXLNA, sequence (P21802 with tags, fused parts or gaps isoform P21802-22 DEL37-62/R63G): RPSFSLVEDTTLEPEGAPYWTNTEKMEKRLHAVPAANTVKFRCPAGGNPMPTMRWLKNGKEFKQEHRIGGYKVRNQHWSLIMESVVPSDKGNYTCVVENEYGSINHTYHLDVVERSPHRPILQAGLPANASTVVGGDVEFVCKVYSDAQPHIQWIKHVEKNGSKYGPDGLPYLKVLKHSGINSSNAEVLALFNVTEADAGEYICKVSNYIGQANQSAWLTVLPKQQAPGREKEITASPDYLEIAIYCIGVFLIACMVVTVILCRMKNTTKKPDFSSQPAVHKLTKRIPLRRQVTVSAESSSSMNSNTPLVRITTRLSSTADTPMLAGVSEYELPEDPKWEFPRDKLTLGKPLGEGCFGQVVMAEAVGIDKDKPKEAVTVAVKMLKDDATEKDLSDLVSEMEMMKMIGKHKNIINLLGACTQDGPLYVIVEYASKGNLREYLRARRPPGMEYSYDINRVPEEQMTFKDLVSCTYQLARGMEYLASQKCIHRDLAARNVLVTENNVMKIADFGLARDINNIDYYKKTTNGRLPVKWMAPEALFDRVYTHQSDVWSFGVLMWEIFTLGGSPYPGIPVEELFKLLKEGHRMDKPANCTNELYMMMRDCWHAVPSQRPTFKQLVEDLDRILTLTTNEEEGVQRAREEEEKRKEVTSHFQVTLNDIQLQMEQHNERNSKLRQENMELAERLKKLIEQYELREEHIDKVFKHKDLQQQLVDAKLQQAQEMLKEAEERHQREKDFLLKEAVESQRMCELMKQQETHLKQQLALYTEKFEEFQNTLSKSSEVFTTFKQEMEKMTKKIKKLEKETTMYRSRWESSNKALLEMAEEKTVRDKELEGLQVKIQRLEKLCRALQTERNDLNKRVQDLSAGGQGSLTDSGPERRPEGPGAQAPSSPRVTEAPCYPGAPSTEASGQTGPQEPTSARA
Description: as §1

Row | anchorage independent growth [3] | anchorage independent growth ([4]; final concentration 0.2 μM, soft agar, FIG. 5 and FIG. 6) | anchorage independent growth ([4]; final concentration 1.0 μM, FIG. 7) | anchorage independent growth [5] | Structure (SMILES) | phosphorylation of FGFR [1] | phosphorylation of MAPK [1] | RBW of the Compound A administration group/the RBW of the control group [2]
1 |  |  |  |  | CNC(=O)n1ccc2cc(Oc3ccnc(NC(=O)c4ccc(C5CCN(CCO)CC5)cc4)c3)c(OCCOC)cc21 [Compound A, 5-((2-(4-(1-(2-hydroxyethyl)piperidin-4-yl)benzamide)pyridin-4-yl)oxy)-6-(2-methoxyethoxy)-N-methyl-1H-indole-1-carboxamide 1.5 succinate] | suppressed | significantly suppressed | ≥ 0.9
2 |  |  |  |  | CCN(CC)CCCCNc1ncc2cc(-c3cc(OC)cc(OC)c3)c(NC(=O)NC(C)(C)C)nc2n1 [PD173074] | suppressed | significantly suppressed | 
3 | significantly suppressed | little suppressed | suppressed | significantly suppressed | CCN1CCN(c2ccc(Nc3cc(N(C)C(=O)Nc4c(Cl)c(OC)cc(OC)c4Cl)ncn3)cc2)CC1 [BGJ398] | suppressed | significantly suppressed | 
